Data on seven molecules can be found in DBAASP.

In general, MIC refers to the smallest concentration in the dilution series that meets the test's criterion for growth inhibition. Read a high MIC as a need for much substance.

≈ marks a conversion by molar mass, not a printed value. Where “and” joins values, the source holds several entries; their conditions need not be identical. Equal values may be shown once.

Test in all cases: ≥ marks a high value that may be exact or a test limit, other limits are often not marked, values filed in µg/mL are converted to µM
Assay [1] has as its system Candida tropicalis CCARM 14019.
In assay [2] the test system is Escherichia coli AB94012.
Assay [3] has as its system Pseudomonas aeruginosa AB93066.
The subject of assay [4] is Staphylococcus aureus ATCC 6538.
Assay [5] concerns Pseudomonas aeruginosa ATCC 9027.
Assay [6] concerns Escherichia coli ATCC 25922.
Assay [7] has as its system Staphylococcus aureus AB94004.
Assay [8] deals with Staphylococcus aureus P1374.
The subject of assay [9] is Staphylococcus aureus ATCC 25923.
The subject of assay [10] is Staphylococcus aureus P1381.
Assay [11] relates to Pseudomonas aeruginosa.
Assay [12] relates to Micrococcus luteus CCM 144.
Assay [13] relates to Escherichia coli B.
Assay [14] deals with Bacillus subtilis 168.
Assay [15] deals with Staphylococcus aureus.
The subject of assay [16] is Candida albicans F7-39/IDE99.
Assay [17] relates to Bacillus megaterium CIP 6620.
The test system of assay [18] is Corynebacterium stationis CIP 101282.
Assay [19] deals with Staphylococcus aureus CIP 103428.
Assay [20] relates to Staphylococcus haemolyticus.
The subject of assay [21] is Vibrio splendidus CIP 107715.
Assay [22] relates to Staphylococcus aureus SG511.
The subject of assay [23] is Micrococcus luteus CIP 5345.
In assay [24] the test system is Vibrio nigripulchritudo CIP 103195.
In assay [25] the test system is Microbacterium maritypicum CIP 105733T.
In assay [26] the test system is Escherichia coli SBS 363.
Assay [27] has as its system Staphylococcus aureus 31.
For assay [28], the system named is Staphylococcus aureus 38.
Assay [29] deals with Pseudomonas aeruginosa 6206.
For assay [30], the system named is Stenotrophomonas maltophilia.
Assay [31] relates to Burkholderia cepacia.
In assay [32] the test system is Pseudomonas aeruginosa PAER1.
Assay [33] concerns Pseudomonas aeruginosa 6294.
For assay [34], the system named is Delftia acidovorans.
For assay [35], the system named is Elizabethkingia meningoseptica.
Assay [36] relates to Pseudomonas aeruginosa ATCC 19660.
For assay [37], the system named is Salmonella sp.
In assay [38] the test system is Candida albicans ATCC 10231.
Assay [39] concerns Escherichia coli.
The test system of assay [40] is Pseudomonas aeruginosa ATCC 27853.
For assay [41], the system named is Salmonella enterica subsp. enterica serovar Enteritidis.
The subject of assay [42] is Staphylococcus aureus ATCC 33591.
In assay [43] the test system is Staphylococcus aureus ATCC 29213.
Assay [44] has as its system Yersinia enterocolitica.
In assay [45] the test system is Cryptococcus neoformans ATCC 32264.
Assay [46] relates to Staphylococcus aureus ATCC 43300.
In assay [47] the test system is Fusarium graminearum PH-1.

For the molecule `CC(C)C[C@H](NC(=O)CNC(=O)[C@H](Cc1cnc[nH]1)NC(=O)[C@H](Cc1cnc[nH]1)NC(=O)[C@H](CCCN=C(N)N)NC(=O)[C@H](CCCCN)NC(=O)[C@H](C)N)C(=O)N[C@@H](CC(N)=O)C(=O)N[C@@H](CS)C(=O)N[C@@H](C)C(=O)N[C@@H](CCCCN)C(=O)N[C@@H](Cc1ccccc1)C(=O)N[C@@H](Cc1cnc[nH]1)C(N)=O` [AKRHHGLNCAKFH], the minimal inhibitory concentration (MIC) in assay [1] was 0.466 µM and 0.931 µM.
For `CC[C@H](C)[C@H](NC(=O)CN)C(=O)N[C@@H](CC(C)C)C(=O)NCC(=O)N[C@@H](CCCCN)C(=O)N[C@@H](CC(C)C)C(=O)N[C@@H](Cc1c[nH]c2ccccc12)C(=O)N[C@@H](CCCCN)C(=O)NCC(=O)N[C@H](C(=O)N[C@@H](CCCCN)C(=O)N[C@@H](CO)C(=O)N[C@H](C(=O)N[C@@H](Cc1ccccc1)C(N)=O)[C@@H](C)CC)C(C)C` [GILGKLWKGVKSIF], the minimum inhibitory concentration (MIC) is 16.2 µM (≈ 25 µg/mL) in [2]; at least 32.3 µM in [3]; 4.04 µM (≈ 6.25 µg/mL) in [4]; 16.2 µM (≈ 25 µg/mL) in [5]; 64.7 µM (≈ 99.9 µg/mL) in [6]; 4.04 µM (≈ 6.25 µg/mL) in assay [7]. For the same molecule, the MIC in [8] was 4.04 µM (≈ 6.25 µg/mL); in assay [9], 8.09 µM (≈ 12.5 µg/mL); in assay [10], 4.04 µM (≈ 6.25 µg/mL).
Turning to `CC[C@H](C)[C@H](NC(=O)[C@H](CC(C)C)NC(=O)[C@H](CCCCN)NC(=O)[C@@H](NC(=O)[C@@H](NC(=O)[C@H](Cc1cnc[nH]1)NC(=O)[C@@H]1CCCN1C(=O)[C@H](CC(C)C)NC(=O)[C@@H](NC(=O)[C@H](CCCCN)NC(=O)[C@H](C)NC(=O)[C@H](CC(C)C)NC(=O)[C@H](CCCCN)NC(=O)[C@H](CO)NC(=O)[C@H](C)NC(=O)[C@H](CCSC)NC(=O)CN)C(C)C)C(C)C)C(C)C)C(=O)N[C@@H](CCCCN)C(=O)O` [GMASKLAKVLPHVVKLIK], the minimum inhibitory concentration (MIC) was 100 µM (≈ 193 µg/mL) in assay [11]; 1.4 µM (≈ 2.71 µg/mL) in assay [12]; 2.9 µM (≈ 5.6 µg/mL) in assay [13]; 3.1 µM (≈ 5.99 µg/mL) in [14]; 35 µM (≈ 67.6 µg/mL) in assay [15]; at least 56.3 µM in assay [16].
As to `CC[C@H](C)[C@H](NC(=O)[C@@H]1CCCN1C(=O)CN)C(=O)N[C@@H](CCCN=C(N)N)C(=O)N[C@@H](CCCN=C(N)N)C(=O)N1CCC[C@H]1C(=O)N[C@@H](CCC(=O)O)C(=O)N1CCC[C@H]1C(=O)N[C@@H](CCCN=C(N)N)C(=O)N1CCC[C@H]1C(=O)N[C@@H](CCCN=C(N)N)C(=O)N1CCC[C@H]1C(=O)N[C@@H](CCC(=O)O)C(=O)O` [GPIRRPEPRPRPE], the minimum inhibitory concentration (MIC) in assay [17] is 20 µM (≈ 31.1 µg/mL); in assay [18] it was 20 µM (≈ 31.1 µg/mL); in assay [19], 20 µM (≈ 31.1 µg/mL); in assay [20] it was 20 µM (≈ 31.1 µg/mL); in assay [21], at least 40 µM; in [22], 20 µM (≈ 31.1 µg/mL). The MIC was at least 80 µM in assay [23], at least 40 µM in assay [24], 20 µM (≈ 31.1 µg/mL) in assay [25] and at least 80 µM in assay [26].
`NCCCC[C@H](NC(=O)[C@H](CCCN=C(N)N)NC(=O)[C@H](CCCCN)NC(=O)[C@H](CC(N)=O)NC(=O)[C@@H](N)CCCCN)C(=O)N[C@@H](CCCN=C(N)N)C(=O)N[C@@H](CCCN=C(N)N)C(=O)N[C@@H](CCCN=C(N)N)C(=O)N[C@@H](CCCN=C(N)N)C(=O)N[C@@H](CCCN=C(N)N)C(=O)N[C@@H](CCCN=C(N)N)C(=O)NCC(=O)NCC(=O)N[C@@H](CCCN=C(N)N)C(=O)N[C@@H](CCCN=C(N)N)C(=O)N[C@@H](CCCN=C(N)N)C(=O)N[C@@H](CCCN=C(N)N)C(=O)O` [KNKRKRRRRRRGGRRRR]: the minimum inhibitory concentration (MIC) in [4] is 53.2 µM (≈ 125 µg/mL); in assay [27] it was at least 106 µM; in assay [28], at least 106 µM; in assay [29], 26.6 µM (≈ 62.5 µg/mL); in assay [30], 13.3 µM (≈ 31.2 µg/mL); in [31] it was at least 426 µM. Further, the minimal inhibitory concentration (MIC) in assay [32] was at least 106 µM; in assay [33], at least 106 µM; in assay [34], at least 426 µM; in assay [35], at least 213 µM; in [36], 26.6 µM (≈ 62.5 µg/mL).
`CC[C@H](C)[C@H](NC(=O)[C@H](CCCCN)NC(=O)[C@@H](NC(=O)[C@H](CCC(N)=O)NC(=O)[C@@H](N)CCCCN)[C@@H](C)CC)C(=O)N[C@@H](Cc1c[nH]c2ccccc12)C(=O)N[C@@H](Cc1ccccc1)C(=O)N[C@@H](CCC(N)=O)C(=O)N[C@@H](CC(N)=O)C(=O)N[C@@H](CCCCN)C(=O)N[C@@H](CCCCN)C(=O)N[C@@H](CCSC)C(=O)N[C@@H](CCCCN)C(=O)N[C@@H](Cc1c[nH]c2ccccc12)C(=O)N[C@@H](CCCCN)C(=O)N[C@@H](CCCCN)C(N)=O` [KQIKIWFQNKKMKWKK]: the MIC in assay [37] is at least 50 µM; in assay [38], 50 µM (≈ 108 µg/mL); in [39], 17.7 µM (≈ 38.2 µg/mL); in assay [40] it was above 50 µM; in [41], 25 µM (≈ 54 µg/mL); in [6], 64 µM and 50 µM. In addition, the MIC in [42] is at least 256 µM; in [43], above 50 µM; in [44] it was at least 50 µM; in assay [45], at least 50 µM; in [46], above 50 µM.
In [47], `NC(N)=NCCC[C@H](NC(=O)[C@H](Cc1ccccc1)NC(=O)[C@H](CC(=O)O)NC(=O)[C@H](CC(=O)O)NC(=O)[C@@H](N)CCCN=C(N)N)C(=O)O` [RDDFR] had an MIC of at least 96 µM.
